# Test results published in patent publication US20020055470A1, “Circumvention of human tumor drug resistance” (CITY OF HOPE, priority 1987, published 2002).
# Where two headings read alike, the source gives them in different places.
# What was measured:
# Type in all cases: cell-based, human
# A2780S [1] = assay: Inhibition of cell growth (cells counted on Coulter Counter after six days)
# Method: The experiment was conducted in triplicate in the manner described with respect to Table I.
# A2780 cells were well-plated (35 mm disnes) and 24 hours later the cells were treated with cisplatin for one hour, washed out and then treated with 6 concentrations of from 1 μM to 100 μM increased in equal increments of a nucleoside analog in saline. Cells were then washed and incubated for six days. The cells were counted on a Coulter Counter and the experiment was done in triplicate.
# (§1) Table VI includes EC50 data further exemplifying the invention. The data reported by Table VI was obtained by substantially the same procedure as that described with respect to Table III. In Table VI, “(C)” indicates continuous exposure, “(1 h)” and “(2 h)” indicate exposure for 1 hour and 2 hours; “HU” indicates hydroxyurea.
# A2780DDP [2] = assay: as above
# Method: The experiment was conducted in triplicate in the manner described with respect to Table I. […]
# as §1
# HCT8DDP = assay: as above; conditions: HCT8-DDP; (C) continuous exposure; read-out: EC50
# Method: as §1
# HCT8S = assay: as above; conditions: (C) continuous exposure, read-out: EC50
# Method: as §1
# HCF7S = assay: Inhibition of cell growth, Table VI; conditions: (C) continuous exposure
# HCF-7 DDP = assay: Inhibition of cell growth, Table VI; conditions: HCF-7 DDP; (C) continuous exposure
# Method: as §1
# K562-araC = assay: Inhibition of cell growth, Table VI; conditions: K562-araC; (C) continuous exposure
# Method: as §1
# K562S = assay: Inhibition of cell growth, Table VI; conditions: (C) continuous exposure
# Method: as §1
# K562-DDP = assay: Inhibition of cell growth, Table VI; conditions: K562-DDP; (C) continuous exposure
# K562-VP16 = assay: Inhibition of cell growth, Table VI; conditions: (C) continuous exposure
# CEMS = assay: Cytotoxicity by continuous exposure in CEM cells
# Method: (§2) There was an increase in DHFR enzyme activity (11.07-fold) due to an eight-fold increase in DHFR gene amplification and expression in CEM/MTX cells. There was also a corresponding 2-fold increase in thymidine kinase (TK) enzyme activity and TK gene expression in CEM/MTX cells. […] CEM cells untreated with nucleoside analog were the controls (100%). The experiment was performed three separate times in duplicate.
# CEMDDP = assay: Cytotoxicity by continuous exposure in CEM cells
# CEMMTX = assay: Cytotoxicity by continuous exposure in CEM cells
# Method: CEM cells were made 15.8-fold resistant to methotrexate (MTX) by weekly (2 hr) pulses and cloned in soft agar. The optimal growth requirements for the CEMS/S and CEM/MTX for folinic acid cells were 2 nM and 10 nM. If the cells were grown in higher concentrations of folinic acid (10^−7 M), both cell lines were correspondingly more resistant to MTX. In contrast, fluoropyrimidine cytotoxicity was enhanced in both cell lines with increasing concentrations of folinic acid from 10^−7 M to 10^−6 M. At concentrations of folinic acid that are not optimal for cell growth, both CEM cell lines are hypersensitive to fluoropyrimidines. In addition, CEM/MTX cells are more hypersensitive to fluoropyrimidines than CEM/S cells at (10^−8 M) folinic acid or lower concentrations.
# as §2
# A2780S [3] = assay: Dual labeled (14C/3H) DNA synthesis and degradation in response to cisplatin; conditions: for 3H-AZT/DNA A2780S: cisplatin 20 μM
# Method: (§3) A dual labeled (^14C/^3H) experiment was designed to measure simultaneously DNA synthesis and degradation in response to cisplatin. […] A2780S cells respond to cisplatin with a modest degradation (10%) of (^14C) DNA over 3 hrs. In contrast, A2780DDP degradation 40.5% of the (^14C) DNA in 3 hrs. […] Transplatin at equimolar concentrations (20 μM) had no influence on DNA synthesis or degradation in A2780 cells.
# A2780DDP [4] = assay: Dual labeled (14C/3H) DNA synthesis and degradation in response to cisplatin; incorporation of labelled nucleoside analogs; conditions: for Incorporation of labelled nucleoside analog into macromolecules: A2780DDP; for 3H-AZT/DNA A2780DDP: cisplatin 20 μM
# Description: A dual labeled (^14C/^3H) experiment was designed to measure simultaneously DNA synthesis and degradation in response to cisplatin.
# A2780 cells = assay: Dual labeled (14C/3H) DNA synthesis and degradation; conditions: 20 μM
# Method: as §3
structure (smiles),measurement,setting,value
"Cc1cn([C@H]2C[C@H](N=[N+]=[N-])[C@@H](CO)O2)c(=O)[nH]c1=O [AZT, 3′ azido-2′, 3′ dideoxythymidine]",EC50,"A2780S [1]; A2780S, (C) continuous exposure, read-out: EC50",10 µM
same,EC50,"A2780S [1]; continuous exposure, proliferation during 6 days, mean + SD, read-out: EC50 A2780S",10 µM
same,EC50,"A2780DDP [2]; A2780 DDP, (C) continuous exposure, read-out: EC50",510 µM
same,EC50,"A2780DDP [2]; continuous exposure, proliferation during 6 days, mean + SD, read-out: EC50 A2780DDP",510 µM
same,EC50,HCT8DDP,11 µM
same,EC50,HCT8S,5.5 µM
same,EC50,HCF7S,65 µM
same,EC50,HCF-7 DDP,10 µM
same,EC50,K562-araC,70 µM
same,EC50,K562S,125 µM
same,EC50,K562-DDP,150 µM
same,EC50,K562-VP16,200 µM
same,cytotoxicity,"CEMS; CEM/S cells, continuous exposure up to 160 μM",minimal cytotoxicity
same,EC50,"CEMS; CEMS, continuous exposure",N.E.**
same,EC50,CEMDDP,N.E.**
same,EC50,"CEMMTX; CEM/MTX cells, continuous exposure (1-160 μM)",25 µM
same,increased incorporation of (3H) AZT into TCA material,"A2780S [3]; A2780S, in response to cisplatin 20 μM",18.8%
same,3H-AZT/DNA A2780S,A2780S [3]; treatment time 0 min,7.79
same,3H-AZT/DNA A2780S,A2780S [3]; treatment time 45 min,6.27
same,3H-AZT/DNA A2780S,A2780S [3]; treatment time 90 min,7.23
same,3H-AZT/DNA A2780S,A2780S [3]; treatment time 180 min,9.25
same,Incorporation of labelled nucleoside analog into macromolecules,A2780DDP [4]; 0 min after cisplatin (20 μM) treatment,26.96
same,Incorporation of labelled nucleoside analog into macromolecules,A2780DDP [4]; 45 min after cisplatin (20 μM) treatment,31.62
same,Incorporation of labelled nucleoside analog into macromolecules,A2780DDP [4]; 90 min after cisplatin (20 μM) treatment,32.31
same,Incorporation of labelled nucleoside analog into macromolecules,A2780DDP [4]; 180 min after cisplatin (20 μM) treatment,37.96
same,3H-AZT/DNA A2780DDP,A2780DDP [4]; treatment time 0 min,26.96
same,3H-AZT/DNA A2780DDP,A2780DDP [4]; treatment time 45 min,31.62
same,3H-AZT/DNA A2780DDP,A2780DDP [4]; treatment time 90 min,32.31
same,3H-AZT/DNA A2780DDP,A2780DDP [4]; treatment time 180 min,37.96
N.N.[Cl][Pt+2][Cl] [Transplatin],influence on DNA synthesis or degradation,A2780 cells,no influence
CN(Cc1cnc2nc(N)nc(N)c2n1)c1ccc(C(=O)N[C@@H](CCC(=O)O)C(=O)O)cc1 [methotrexate],fold resistance of CEM/MTX cells,CEMMTX; CEM cells made resistant by weekly (2 hr) pulses,15.8 fold
